Where two headings read alike, the source gives them in different places.
Experiments:
[1] = tested on: JJN-3 (NIK translocated) multiple myeloma cells; experiment: Antiproliferative activity on JJN-3 multiple myeloma cells (CellTiter-Glo, 96 hr), Biological Assay C; assay type: cell-based, human; details: JJN-3 (NIK translocated) cells, averaged values, read-out: JJN-3 Proliferation inhibition (IC50 (nM))
How it was run: (§1)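 JJN-3 and KMS12-BM cells in RPMI 1640 with 10% FCS were plated at 15000–20000 cells/well and treated 96 h with a 9-point 1:3 dilution series (0.3% DMSO). Viability read by CellTiter-Glo luminescence, blank (time-zero cells) subtracted, expressed as % of untreated control; duplicate wells.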

[2] = tested on: P-IKKα levels in L363 (NIK translocated multiple myeloma) cells; experiment: Effect of compounds on P-IKKα levels in L363 cells (Mesoscale sandwich immuno-assay), Biological Assay B; assay type: cell-based, human; details: 2 hr treatment, averaged values, read-out: Inhibition of pIKKα_L-363 (IC50 (nM))
Experimental: Effect of Compounds on P-IKKα Levels in L363 (NIK Translocated Multiple Myeloma) Cells
All compounds tested were dissolved in DMSO and further dilutions were made in culture medium. Final DMSO concentration was 1% (v/v) in cell assays. The human L363 cells (ATCC) were cultured in RPMI 1640 medium supplemented with GlutaMax and 10% fetal calf serum (PAA). Cells were routinely maintained at densities of 0.2×10^6 cells per ml-1×10^6 cells per ml at 37° C. in a humidified 5% CO2 atmosphere. Cells were passaged twice a week splitting back to obtain the low density. Cells were seeded in 96 well plates (Nunc 167008) at 2×10^6 per ml media in a volume of 75 μl per well plus 25 μl 1 μg/ml recombinant human B-cell activating factor (BAFF/BLyS/TNFSF13B). Seeded cells were incubated at 37° C. in a humidified 5% CO2 atmosphere for 24 hr. Drugs and/or solvents were added (20 μl) to a final volume of 120 μl. Following 2 hr treatment plates were removed from the incubator and cell lysis was achieved by the addition of 30 μl 5× lysis buffer followed by shaking on a plate shaker at 4° C. for 10 min. At the end of this incubation lysed cells were centrifuged at 800×g for 20 min at 4° C. and the lysate was assessed for P-IKKα levels by sandwich immuno-assay carried out in anti-rabbit antibody coated Mesoscale plates. Within an experiment, the results for each treatment were the mean of 2 replicate wells. For initial screening purposes, compounds were tested using an 8 point dilution curve (serial 1:3 dilutions). For each experiment, controls (containing MG132 and BAFF but no test drug) and a blank incubation (containing MG132 and BAFF and 10 μM ADS125117, a test concentration known to give full inhibition) were run in parallel. The blank incubation value was subtracted from all control and sample values. To determine the IC50 a sigmoidal curve was fitted to the plot of % inhibition of control P-IKKα levels versus Log10 compound concentration.
Note: Compounds 237 and 238 were tested at a maximum top concentration of 823 nM.

[3] = biological target: recombinant human NF-kappaB-inducing kinase (NIK/MAP3K14) (Homo sapiens, UniProt Q99558); experiment: Inhibition of auto-phosphorylation of recombinant human NIK/MAP3K14 activity (AlphaScreen), Biological Assay A; assay type: biochemical; details: averaged values over all measurements on all batches
How it was run: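 GST-tagged enzyme (0.2 nM) incubated with compound and 25 μM ATP in 50 mM Tris pH 7.5, 5 mM MgCl2, 1 mM EGTA, 1 mM DTT, 0.1 mM Na3VO4, 1% DMSO, 1 h at 25 °C. Stopped with anti-phospho-IKK Ser176/180 antibody; AlphaScreen bead read, blank-subtracted, IC50 from sigmoidal fit.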

[4] = tested on: KMS12-BM (NIK WT) multiple myeloma cells; experiment: Antiproliferative activity on KMS12-BM multiple myeloma cells (CellTiter-Glo, 96 hr), Biological Assay C; assay type: cell-based, human; details: averaged values, read-out: KMS-12 Proliferation inhibition (IC50 (nM))
How it was run: as §1

Sequence of recombinant human NF-kappaB-inducing kinase (NIK/MAP3K14) (Q99558 whole entry): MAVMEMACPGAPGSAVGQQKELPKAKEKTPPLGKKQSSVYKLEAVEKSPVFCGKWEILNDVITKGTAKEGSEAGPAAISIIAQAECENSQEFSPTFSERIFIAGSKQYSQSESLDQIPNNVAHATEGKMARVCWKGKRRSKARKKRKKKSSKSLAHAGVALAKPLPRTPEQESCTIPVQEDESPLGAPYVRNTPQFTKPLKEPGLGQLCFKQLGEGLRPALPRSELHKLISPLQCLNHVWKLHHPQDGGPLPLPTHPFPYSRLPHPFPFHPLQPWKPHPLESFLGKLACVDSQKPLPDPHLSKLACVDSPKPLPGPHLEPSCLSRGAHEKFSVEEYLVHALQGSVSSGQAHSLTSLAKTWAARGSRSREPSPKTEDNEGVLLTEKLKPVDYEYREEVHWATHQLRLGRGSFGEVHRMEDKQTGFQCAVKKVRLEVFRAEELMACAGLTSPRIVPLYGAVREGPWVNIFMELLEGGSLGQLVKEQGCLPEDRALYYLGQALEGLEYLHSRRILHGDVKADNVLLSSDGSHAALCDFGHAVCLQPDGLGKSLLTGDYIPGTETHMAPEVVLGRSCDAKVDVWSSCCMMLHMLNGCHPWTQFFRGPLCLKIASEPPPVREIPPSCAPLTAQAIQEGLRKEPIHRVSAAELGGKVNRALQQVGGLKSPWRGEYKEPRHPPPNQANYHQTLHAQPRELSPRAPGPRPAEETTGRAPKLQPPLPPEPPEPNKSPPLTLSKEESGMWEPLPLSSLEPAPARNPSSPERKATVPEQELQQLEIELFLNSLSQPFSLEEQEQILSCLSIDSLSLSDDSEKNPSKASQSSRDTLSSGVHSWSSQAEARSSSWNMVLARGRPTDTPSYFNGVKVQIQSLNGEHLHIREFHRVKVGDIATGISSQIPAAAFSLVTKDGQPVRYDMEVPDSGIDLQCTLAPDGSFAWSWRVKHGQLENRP

| Structure (SMILES) | melting point [°C] | IC50 ([1]; Homo sapiens, JJN-3, 96 h) [nM] | IC50 ([2]; Homo sapiens, L-363, 2 h) [nM] | IC50 [3] [nM] | IC50 ([4]; Homo sapiens, KMS-12-BM, 96 h) [nM] | IC50 [1] [nM] | IC50 [2] [nM] | IC50 [4] [nM] |
| --- | --- | --- | --- | --- | --- | --- | --- | --- |
| Cc1cc(F)c(C(=O)NC2CCOC2)cc1Nc1nccc(-c2cc(C#N)c3c(c2)[C@@](C)(CO)CN3)n1 (single isomer, unassigned) [Compound 168] | 246 | ~1410 | 14.5 | 10.7 | > 10000 |  |  |  |
| C[C@]1(CO)CNc2c(C#N)cc(-c3ccnc(Nc4cc(C#N)ccc4OCC4CC4)n3)cc21 [Compound 13] | 194 | 146 | 30.9 | 9.2 | > 10000 |  |  |  |
| CCCCc1ccc(C#N)cc1Nc1nccc(-c2cc(C#N)c3c(c2)[C@@](C)(CO)CN3)n1 [Compound 15] | 110 | 117 | ~269 | 11 | > 10000 |  |  |  |
| CC(C)Oc1ccc(C#N)cc1Nc1nccc(-c2cc(C#N)c3c(c2)[C@@](C)(CO)CN3)n1 [Compound 16] | 162 | 258 | 15.5 | 15.5 | 550 |  |  |  |
| C[C@]1(CO)CNc2c(C#N)cc(-c3ccnc(Nc4cc(C#N)c(C5CCOCC5)cc4OCC4CC4)n3)cc21 [Compound 19] | 284 | 1950 | 38.9 | 27.5 | > 10000 |  |  |  |
| Cc1ccc(-c2ncc[nH]2)cc1Nc1nccc(-c2cc(C#N)c3c(c2)[C@@](C)(CO)CN3)n1.Cl [Compound 191] | 122 |  | 4070 | 13.8 |  |  |  |  |
| CC(=O)NC[C@@]1(C)CNc2c(C#N)cc(-c3ccnc(Nc4cc(C#N)ccc4C)n3)cc21 [Compound 211] | 160 |  | 3160 | 16.2 |  |  |  |  |
| Cc1ccc(C#N)cc1Nc1nccc(-c2cc(C#N)c3c(c2)[C@@](C)(CNS(C)(=O)=O)CN3)n1 [Compound 212] | 168 |  | ~4470 | 25.1 |  |  |  |  |
| Cc1ccc(CN2CCCC2)cc1Nc1nccc(-c2cc(C#N)c3c(c2)[C@@](C)(CO)CN3)n1 [Compound 216] | 108 |  | 144 | 49 |  |  |  |  |
| Cc1ccc(CN2CC(F)(F)C2)cc1Nc1nccc(-c2cc(C#N)c3c(c2)[C@@](C)(CO)CN3)n1 [Compound 219] | 181 |  | 5500 | 15.5 |  |  |  |  |
| Cc1ccc(CN2CCC(O)CC2)c(Nc2nccc(-c3cc(C#N)c4c(c3)[C@@](C)(CO)CN4)n2)c1 [Compound 221] | 181 |  | 646 | 32.4 |  |  |  |  |
| CNCc1ccc(C)c(Nc2nccc(-c3cc(C#N)c4c(c3)[C@@](C)(CO)CN4)n2)c1 [Compound 239] | 116 |  | 355 | 13.8 |  |  |  |  |

Compounds with a lower IC50 [3], results first:

| melting point [°C] | IC50 ([1]; Homo sapiens, JJN-3, 96 h) [nM] | IC50 ([2]; Homo sapiens, L-363, 2 h) [nM] | IC50 [3] [nM] | IC50 ([4]; Homo sapiens, KMS-12-BM, 96 h) [nM] | IC50 [1] [nM] | IC50 [2] [nM] | IC50 [4] [nM] | Structure (SMILES) |
| --- | --- | --- | --- | --- | --- | --- | --- | --- |
| 150 | 437 | 33.1 | 3.5 | > 10000 |  |  |  | Cc1ccc(C(=O)NC2CCN(C)C2)cc1Nc1nccc(-c2cc(C#N)c3c(c2)[C@@](C)(CO)CN3)n1 (mixture of isomers) [Compound 163] |
| 116 | 955 | 18.6 | 8.9 | > 10000 |  |  |  | Cc1cc(F)c(C(=O)NC2CCN(C)C2)cc1Nc1nccc(-c2cc(C#N)c3c(c2)[C@@](C)(CO)CN3)n1 (single isomer, unassigned) [Compound 166] |
| 239 |  |  | 7.6 |  | 562 | 19.1 | 6170 | Cc1cc(F)c(C(=O)NC2CCN(C)C2)cc1Nc1nccc(-c2cc(C#N)c3c(c2)[C@@](C)(CO)CN3)n1 (single isomer, unassigned) [Compound 167] |
| 256 |  |  | 8.7 |  | ~1000 | 8.3 | > 10000 | Cc1cc(F)c(C(=O)NC2CCOC2)cc1Nc1nccc(-c2cc(C#N)c3c(c2)[C@@](C)(CO)CN3)n1 (single isomer, unassigned) [Compound 169] |
| 230 | 42 | 2.6 | 2 | ~891 |  |  |  | Cc1cc(C2CCCN(C)C2)c(C#N)cc1Nc1nccc(-c2cc(C#N)c3c(c2)[C@@](C)(CO)CN3)n1 (single isomer, unassigned) [Compound 178] |
| 222 |  |  | 1.8 |  | 85 | 2.2 | 5190 | Cc1ccc(C#N)cc1Nc1nccc(-c2cc(C#N)c3c(c2)[C@@](C)(CO)CN3)n1 [Compound 1] |
| 184 | 87 | 32.4 | 1.3 | > 10000 |  |  |  | C[C@]1(CO)CNc2c(C#N)cc(-c3ccnc(Nc4cc(C#N)ccc4OCCO)n3)cc21 [Compound 8] |
| 162 | 170 | 21.4 | 5.5 | > 10000 |  |  |  | CC1(COc2ccc(C#N)cc2Nc2nccc(-c3cc(C#N)c4c(c3)[C@@](C)(CO)CN4)n2)COC1 [Compound 14] |
| 148 | 56 | 6.8 | 1.1 | 479 |  |  |  | Cc1cc(S(C)(=O)=O)ccc1Nc1nccc(-c2cc(C#N)c3c(c2)[C@@](C)(CO)CN3)n1 [Compound 17] |
| 263 | 407 | 20 | 2.6 | ~8130 |  |  |  | CC(C)Oc1cc(P(C)(C)=O)ccc1Nc1nccc(-c2cc(C#N)c3c(c2)[C@@](C)(CO)CN3)n1 [Compound 18] |
| 220 |  | ~1200 | 2.8 |  |  |  |  | Cc1c(Nc2nccc(-c3cc(C#N)c4c(c3)[C@@](C)(CO)CN4)n2)cc(C#N)cc1C(=O)O [Compound 201] |
| 115 |  | ~1230 | 3.6 |  |  |  |  | Cc1ccc(CNC2CC2)cc1Nc1nccc(-c2cc(C#N)c3c(c2)[C@@](C)(CO)CN3)n1 [Compound 218] |
| 192 | 20 | 5.9 | 3.5 |  |  |  |  | Cc1ccc(OC2CCN(C)CC2)c(Nc2nccc(-c3cc(C#N)c4c(c3)[C@@](C)(CO)CN4)n2)c1 [Compound 234] |

Source: patent US11180487B2, “Substituted cyanoindoline derivatives as NIK inhibitors” (Janssen Pharmaceutica NV, priority 2016, dated 2021)
